The text below walks through data of ChEMBL document CHEMBL5036336, “Structure-Guided Optimization Provides a Series of TTK Protein Inhibitors with Potent Antitumor Activity” (J Med Chem, 2021).

Molecules are shown by their SMILES. ≈ marks a conversion by molar mass, not a printed value.

For data set [1], the target named is T1, Dual specificity protein kinase TTK (Homo sapiens, UniProt P33981).
T1 sequence (P33981 whole entry): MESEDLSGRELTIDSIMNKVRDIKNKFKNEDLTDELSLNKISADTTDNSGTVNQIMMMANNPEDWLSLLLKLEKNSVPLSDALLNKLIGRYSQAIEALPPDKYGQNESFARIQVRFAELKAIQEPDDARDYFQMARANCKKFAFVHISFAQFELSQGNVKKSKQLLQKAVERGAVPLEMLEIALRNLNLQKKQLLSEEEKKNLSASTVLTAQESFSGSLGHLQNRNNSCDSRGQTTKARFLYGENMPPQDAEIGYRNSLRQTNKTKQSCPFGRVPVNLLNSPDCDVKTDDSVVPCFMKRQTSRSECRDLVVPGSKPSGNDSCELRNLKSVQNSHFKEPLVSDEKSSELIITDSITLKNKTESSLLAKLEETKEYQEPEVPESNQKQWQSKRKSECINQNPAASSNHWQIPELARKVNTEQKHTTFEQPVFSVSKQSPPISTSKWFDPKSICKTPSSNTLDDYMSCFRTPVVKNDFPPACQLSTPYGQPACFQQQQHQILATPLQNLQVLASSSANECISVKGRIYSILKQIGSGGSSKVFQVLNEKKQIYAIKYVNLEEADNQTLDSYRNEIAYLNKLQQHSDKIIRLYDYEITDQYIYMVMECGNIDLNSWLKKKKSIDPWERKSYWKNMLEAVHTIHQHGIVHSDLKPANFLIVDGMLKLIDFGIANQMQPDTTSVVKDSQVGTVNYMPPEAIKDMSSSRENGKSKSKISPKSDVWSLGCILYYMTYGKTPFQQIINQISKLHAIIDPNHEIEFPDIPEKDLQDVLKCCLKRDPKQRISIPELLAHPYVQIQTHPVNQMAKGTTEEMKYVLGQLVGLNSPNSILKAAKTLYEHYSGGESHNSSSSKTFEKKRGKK
The experiment in a line: Displacement of kinase tracer 236 from TTK (unknown origin) by LanthaScreen Eu kinase binding assay.

Another data set concerns CAL-51. Nature of the data set: Antiproliferative activity against human CAL-51 cells assessed as inhibition of cell proliferation measured after 3 days by Cell Titer-Glo luminescence based assay. The format is functional. The following applies: CAL-51, 72 h.
Data set [2] can be described thus: Kinetic solubility of compound in PBS at pH 7.4 at 200 uM incubated for 24 hrs by UPLC/MS analysis. Type of data set: physicochemical. The following applies: read-out: Kinetic_solubility.
A short description of data set [3]: Clearance in rat at 2 mg/kg, iv. Type of data set: ADME, organism-based. The following applies: in vivo.
The next data set deals with Cytochrome P450 3A4 (Homo sapiens, UniProt P08684). Nature of the data set: Inhibition of CYP3A4 in human liver microsomes using […] as substrate incubated for 5 mins in presence of NADPH by LC-MS/MS analysis. The format is ADME.
Sequence of Cytochrome P450 3A4 (P08684 whole entry): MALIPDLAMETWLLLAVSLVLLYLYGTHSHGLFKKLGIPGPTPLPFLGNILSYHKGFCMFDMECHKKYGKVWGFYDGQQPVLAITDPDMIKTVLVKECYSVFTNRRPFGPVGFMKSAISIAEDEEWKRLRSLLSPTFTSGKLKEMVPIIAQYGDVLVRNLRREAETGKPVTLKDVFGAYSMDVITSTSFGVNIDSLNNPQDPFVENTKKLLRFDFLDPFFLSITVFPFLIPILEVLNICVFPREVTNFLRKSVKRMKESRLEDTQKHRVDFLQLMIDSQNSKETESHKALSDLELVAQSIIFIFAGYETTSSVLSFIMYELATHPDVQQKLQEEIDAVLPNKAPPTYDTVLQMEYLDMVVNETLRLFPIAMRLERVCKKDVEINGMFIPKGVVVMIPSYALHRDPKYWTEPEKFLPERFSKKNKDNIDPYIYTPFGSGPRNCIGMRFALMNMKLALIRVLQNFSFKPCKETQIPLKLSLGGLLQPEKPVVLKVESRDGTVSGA

For `CCc1cccc(CC)c1N1CCn2cc(-c3nc(Nc4ccc(N5CCC(C(=O)N6CCN(C)CC6)CC5)cc4OC)nc4[nH]ccc34)cc2C1=O`, the figures for the IC50 (in data set [1]; in the data set with CAL-51; at Cytochrome P450 3A4) were 5.6 nM, 5 nM and over 5000 nM, respectively. In addition, the solubility kinetic at 24 h, 200 µM in data set [2] stood at 0.8 µM (≈ 0.573 µg/mL). In data set [3], the clearance stood at 1.7 mL/min/kg.
On the same counts, the results for `CCc1cccc(CC)c1NC(=O)c1ccn(-c2nc(Nc3ccc(N4CCC(N5CCN(C)CC5)CC4)cc3OC)nc3[nH]ccc23)c1` are 2 nM, 6 nM, 2000 nM, 53 µM (≈ 35.1 µg/mL) and 68 mL/min/kg.
Regarding `CCc1cccc(CC)c1NC(=O)c1ccn(-c2nc(Nc3ccc(N4CCC(C(=O)N5CCN(C)CC5)CC4)cc3OC)nc3[nH]ccc23)c1`, the half-maximal inhibitory concentration (IC50) in data set [1] is 2 nM; in the data set with CAL-51 it was 10 nM; at Cytochrome P450 3A4, 3100 nM. In addition, the clearance in data set [3] was determined as 22 mL/min/kg.
Consider `CCc1cccc(CC)c1NC(=O)c1ccn(-c2nc(Nc3ccc(N4CCC(O)(CN5CCN(C)CC5)CC4)cc3OC)nc3[nH]ccc23)c1`, for which the figures for the IC50 (in data set [1]; in the data set with CAL-51; on Cytochrome P450 3A4) were 1 nM, 4 nM and 1200 nM, respectively. Also, in data set [2], the solubility kinetic at 24 h, 200 µM was found to be 37 µM (≈ 25.6 µg/mL).
As for `CCc1cccc(CC)c1N1CCn2cc(-c3nc(Nc4ccc(N5CCC(C(=O)N(C)CCN(C)C)CC5)cc4OC)nc4[nH]ccc34)cc2C1=O`, the 50% inhibitory concentration (IC50) is 5.3 nM in data set [1], 7 nM in the data set with CAL-51 and 3900 nM on Cytochrome P450 3A4. In addition, the solubility kinetic at 24 h, 200 µM in data set [2] worked out at 125 µM (≈ 89.7 µg/mL). Moreover, the clearance in data set [3] was 27 mL/min/kg.
For `CCc1cccc(CC)c1NC(=O)c1cc(-c2nc(Nc3ccc(N4CCC(O)(C(=O)N5CCN(C)CC5)CC4)cc3OC)nc3[nH]ccc23)n(C)n1`, the IC50 in data set [1] was 3 nM; in the data set with CAL-51 it was 20 nM; on Cytochrome P450 3A4, over 5000 nM. Moreover, in data set [2], the solubility kinetic at 24 h, 200 µM is 5 µM (≈ 3.6 µg/mL). For the same compound, the clearance in data set [3] is 31 mL/min/kg.
As for `CCc1cccc(CC)c1N1CCn2cc(-c3nc(Nc4ccc(N5CCN(CC(=O)N(C)C)CC5)cc4OC)nc4[nH]ccc34)cc2C1=O`, the IC50 in data set [1] was determined as 9 nM; in the data set on CAL-51, 11 nM. Besides, the solubility kinetic at 24 h, 200 µM in data set [2] turned out to be 1.4 µM (≈ 0.946 µg/mL). In data set [3], this compound came in with a clearance of 23 mL/min/kg.
On to `CCc1cccc(CC)c1N1CCn2cc(-c3nc(Nc4ccc(N5CCC(N6CCN(C)CC6)CC5)cc4OC)nc4[nH]ccc34)cc2C1=O`, for which the IC50 in data set [1] was 4 nM; in the data set on CAL-51, 9 nM; on Cytochrome P450 3A4 it was over 5000 nM. Also, the solubility kinetic at 24 h, 200 µM in data set [2] amounted to 6 µM (≈ 4.13 µg/mL). The compound also displayed a clearance in data set [3] of 52 mL/min/kg.
The corresponding values for `CCc1cccc(CC)c1N1CCn2cc(-c3nc(Nc4ccc(N5CCC(O)(CN6CCN(C)CC6)CC5)cc4OC)nc4[nH]ccc34)cc2C1=O` are 2.8 nM, 8 nM, over 5000 nM, 150 µM (≈ 108 µg/mL) and 15 mL/min/kg.
The corresponding values for `CCc1cccc(CC)c1N1CCn2cc(-c3nc(Nc4ccc(N5CCC(O)(C(=O)N6CCN(C)CC6)CC5)cc4OC)nc4[nH]ccc34)cc2C1=O` are 7.5 nM, 12 nM, over 5000 nM, 2 µM (≈ 1.46 µg/mL) and 20 mL/min/kg.
For the compound `CCc1cccc(CC)c1NC(=O)c1cc(-c2nc(Nc3ccc(N4CCN(CC(=O)N(C)C)CC4)cc3OC)nc3[nH]ccc23)n(C)n1`, the IC50 in data set [1] is 3 nM; in the data set on CAL-51, 22 nM. The solubility kinetic at 24 h, 200 µM in data set [2] was determined as 3 µM (≈ 1.99 µg/mL). Besides, the clearance in data set [3] came to 20 mL/min/kg.
For the compound `CCc1cccc(CC)c1NC(=O)c1cc(-c2nc(Nc3ccc(N4CCC(O)(CN5CCN(C)CC5)CC4)cc3OC)nc3[nH]ccc23)n(C)n1`, the figures for the IC50 (in data set [1]; in the data set with CAL-51; on Cytochrome P450 3A4) were 2 nM, 19 nM and over 5000 nM, respectively. Besides, in data set [2], the solubility kinetic at 24 h, 200 µM amounted to 162 µM (≈ 115 µg/mL). Further, the clearance in data set [3] amounted to 56 mL/min/kg.
As to `CNC(=O)c1ccc(Nc2nc(OC3CCCC3)c3c(-c4ccc5nc(C)oc5c4)c[nH]c3n2)c(OC)c1`, the IC50 on Cytochrome P450 3A4 amounted to 280 nM.
Still for that read-out and setting: in the case of `COc1cc(N2CCN(C3COC3)CC2)ccc1Nc1nc(O[C@H]2CCOC(C)(C)C2)c2cc[nH]c2n1` it was over 5000 nM.
For the compound `CCc1cccc(CC)c1NC(=O)c1cc(-c2nc(Nc3ccc(N4CCC(C(=O)N5CCN(C)CC5)CC4)cc3OC)nc3[nH]ccc23)n(C)n1`, the IC50 in data set [1] was 4 nM; in the data set on CAL-51, 17 nM; at Cytochrome P450 3A4 it was over 5000 nM. Moreover, the solubility kinetic at 24 h, 200 µM in data set [2] stood at 2 µM (≈ 1.41 µg/mL). For the same compound, in data set [3], the clearance came out at 19 mL/min/kg.
On the same counts, the results for `CCc1cccc(CC)c1NC(=O)c1cc(-c2nc(Nc3ccc(N4CCC(N5CCN(C)CC5)CC4)cc3OC)nc3[nH]ccc23)n(C)n1` are 6 nM, 17 nM, over 5000 nM, 18 µM (≈ 12.2 µg/mL) and 15 mL/min/kg.
In the case of `CCc1cccc(CC)c1NC(=O)c1ccn(-c2nc(Nc3ccc(N4CCC(O)(C(=O)N5CCN(C)CC5)CC4)cc3OC)nc3[nH]ccc23)c1`, the figures for the IC50 (in data set [1]; in the data set with CAL-51; at Cytochrome P450 3A4) were 2 nM, 10 nM and 1900 nM, respectively. For the same compound, the solubility kinetic at 24 h, 200 µM in data set [2] is 1 µM (≈ 0.706 µg/mL).
As for `CCc1cccc(CC)c1NC(=O)c1ccn(-c2nc(Nc3ccc(N4CCN(CC(=O)N(C)C)CC4)cc3OC)nc3[nH]ccc23)c1`, the figures for the IC50 (in data set [1]; in the data set with CAL-51) were 1 nM and 10 nM, respectively. Also, the solubility kinetic at 24 h, 200 µM in data set [2] came to 0.5 µM (≈ 0.325 µg/mL).
